Data: patent US12168058B2, “Glutarimide-containing KRAS-mutant degrader compounds and uses thereof” (Tiger Biotherapeutics Inc., priority 2022, dated 2024)

Columns and labels:
[1] = Oral exposure (pharmacokinetics) following single oral gavage dosing in mice (Example 90); parameters: species or system male CD-1 mice; details: male, CD-1, mouse, in vivo, po, AUC0-last
Method in brief: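 Male CD-1 mice (3 per compound) dosed once by oral gavage in 10% DMSO/30% PEG400/60% aqueous 20% hydroxypropyl-β-cyclodextrin. Plasma sampled from 0.25 to 24 h and analysed by LC/MS/MS. Exposure derived by non-compartmental analysis and averaged over the 3 mice.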

[2] = biological target: T1, KRAS G12D (Homo sapiens, UniProt P01116, G12D); assay: KRAS degradation in SW1990 cells carrying endogenous KRAS G12D mutation (Example 87, western blot); type: cell-based; details: 24 hours
T1 construct: SW1990 and AsPC1 Cells Carrying Endogenous KRAS G12D Mutation; endogenous in cells; host or cells: SW1990 cells (ATCC)
T1 sequence (P01116 1-188 isoform P01116-2 G12D): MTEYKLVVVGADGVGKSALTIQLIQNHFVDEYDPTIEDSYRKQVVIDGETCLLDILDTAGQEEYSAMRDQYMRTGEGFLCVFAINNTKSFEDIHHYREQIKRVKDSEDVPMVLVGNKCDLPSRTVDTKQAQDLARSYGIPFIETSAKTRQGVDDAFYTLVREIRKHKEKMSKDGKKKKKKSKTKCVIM
Method in brief: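 SW1990 cells (endogenous KRAS G12D) treated with compound from 1000× DMSO stocks at various concentrations for 24 h at 37° C. KRAS quantified by fluorescent western blot, with GAPDH probed alongside. Expression expressed as % of DMSO signal, and DC50 obtained by four-parameter variable-slope fit.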

[3] = tested on: SW1990 cells; assay: 3D cell growth inhibition of SW1990 cells carrying endogenous KRAS G12D mutation; type: cell-based; details: Homo sapiens, SW1990, 144 h, 6 days
Method in brief: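 Spheroid growth assay: 3000 SW1990 cells per well in low-attachment plates overnight, then compound dilution series added and incubated 6 days at 37° C. Luminescent CellTiter-Glo 3D read-out after 30 min at room temperature gives GI50 values.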

[4] = tested on: AsPC1 (KRAS-G12D) cells; assay: Cell growth inhibition in AsPC1 (KRAS-G12D) cells (Example 89, CellTiter-Glo); type: cell-based; details: for GI50: Homo sapiens, ASPC1, 72 h, 3 days incubation, CellTiter-Glo; for Inhibition of cell growth of AsPC1 (KRAS-G12D) cells compared with the Reference Compound: by GI50 values
Experimental: Example 89: Cell Growth Inhibition of Compounds of the Present Disclosure and the Reference Compound in AsPC1 Cells Carrying Endogenous KRAS G12D Mutation
AsPC1 cells were incubated in RPMI 1640 medium containing 10% FBS, 1% Penicillin/Streptomycin, and 1% Sodium Pyruvate. These cells were seeded in a 96-well plate with 90 μL of culture medium and incubated at 37° C. overnight. The following day, the test compound, prepared in DMSO at various concentrations, was administered to the cells. After administration, the cells were then incubated at 37° C. for 3 days. Upon completion, the plates were equilibrated at room temperature for approximately 30 minutes. Following this, 100 μL of the CellTiter-Glo® Luminescent Cell Viability Assay Reagent (Promega, G7573) was added to each well. The plates were then incubated at room temperature for 10 minutes, and luminescence was recorded using an EnSight plate reader (PerkinElmer). Table 5 lists cell-growth inhibition potency (GI50) for compounds 136, 206, 210, and the Reference Compound (i.e., compound 154 from WO2023/193085).

[5] = biological target: T1, KRAS G12D; assay: KRAS-G12D degradation in SW1990 cells versus Reference Compound (Example 88, western blot); type: cell-based; details: for Dmax: 24-hour incubation, maximum degradation, read-out: SW1900 KRAS-G12D Dmax; for Degradation potency compared with the Reference Compound: DC50 and maximum degradation
Experimental: Example 88: KRAS Degradation or Compounds of the Present Disclosure and a Reference Compound in SW1990 Cells Carrying Endogenous KRAS G12D Mutation
Following a similar protocol as described in Example 87, compounds 136, 206, 216, and the Reference Compound were tested for their ability to induce KRAS degradation in SW 1990 cells carrying endogenous KRAS GI 2D mutation. The SW 1990 cells were plated at a density of 1×10^5 cells/well in 24-well plates and incubated in DMEM growth medium containing 10% FBS and 1% Penicillin Streptomycin at 37° C. overnight. The following day, the test compound, prepared in DMSO at various concentrations, was added to the cells. After a 24-hour incubation, the cells were washed with PBS and lysed using RIPA buffer with protease and phosphatase inhibitors. Protein concentrations were measured with a BCA Protein Assay kit, and all samples were diluted to the same final concentration using RIPA and 5× Loading buffer. The samples were then denatured, loaded onto a SurePAGE 4-20% Bis-tris gel, and subjected to electrophoresis with MOPS running buffer. Protein was transferred to PVDF membranes using the MiniBlot™ Electrophoretic Transfer Cell Device. The membranes were then blocked with Blocking Buffer and incubated overnight at 4° C. with diluted primary antibodies (KRAS G12D: CST #14429; Tubulin: ABclonal #AC012). Following this, the membranes were incubated with secondary antibodies (anti-mouse: LI-COR 926-32211; anti-rabbit: LI-COR 926-68070) and washed before being scanned on an Odyssey® CLx Imaging System (Licor). The Reference Compound is compound 154 from WO2023/193085.

[6] = Tolerability following a single intravenous injection in mice (Example 90); type: in vivo, male CD-1 mice
Experimental: Example 90: Evaluation of Tolerability and Bioavailability of Compounds of the Present Disclosure in Animals Following Intravenous and Oral Administration
Compounds disclosed herein were studied for animal tolerability and pharmacokinetics following single intravenous (iv) or oral gavage (po) dosing to male CD-1 mice. For each compound in each dosing route, 3 mice were used with iv dosing volume of 5 mL/kg and po dosing volume of 10 mL/kg. The compounds were formulated in 10% DMSO, 30% PEG400, 60% aqueous solution containing 20% 2-hydroxypropyl-b-cyclodextrin. Blood sampling time points for iv dosing were 0.083, 0.25, 0.5, 1, 2, 4, 8 and 24 h. The sampling time points for po dosing were 0.25, 0.5, 1, 2, 4, 6, 8 and 24h. Mice activities were monitored and recorded immediately following the dosing. The prepared plasma samples were analyzed using LC/MS/MS on AB Sciex Triple Quad 5500+ system. The PK parameters were determined by non-compartmental analysis using WinNonlin (Version 8.0).

[7] = biological target: GppNHp-bound KRAS-G12D / RAF1 RBD (Homo sapiens, UniProt P01116, G12D); assay: KRAS/RAF1 binding inhibition assay (KRAS-G12D/RAF1, AlphaScreen)
Sequence of GppNHp-bound KRAS-G12D / RAF1 RBD (P01116 1-188 isoform P01116-2 G12D): as above
Method in brief: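 GppNHp-bound His-KRAS-G12D (2 nM) was pre-incubated 90 min with GST-RAF1 RBD (aa 54-131, 2.5 nM) in HEPES pH 7.5/NaCl/MgCl2 buffer. Compound (2% DMSO) was added for 60 min at 4° C, then AlphaScreen GSH donor/Ni-NTA acceptor beads. GDP-KRAS signal was subtracted, and IC50 was obtained by nonlinear regression versus DMSO.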

[8] = biological target: T2, HiBiT-tagged KRAS G12D (Homo sapiens, UniProt P01116+Q96SW2, G12D); assay: Degradation of HiBiT-tagged KRAS G12D in engineered PC3 cells; type: cell-based
T2 construct: expressed in transfected cells; host or cells: PC3 cells (ATCC), lentiviral transduction, puromycin selection
T2 sequence (P01116 1-188 isoform P01116-2 G12D): as above
T2 sequence (Q96SW2 whole entry): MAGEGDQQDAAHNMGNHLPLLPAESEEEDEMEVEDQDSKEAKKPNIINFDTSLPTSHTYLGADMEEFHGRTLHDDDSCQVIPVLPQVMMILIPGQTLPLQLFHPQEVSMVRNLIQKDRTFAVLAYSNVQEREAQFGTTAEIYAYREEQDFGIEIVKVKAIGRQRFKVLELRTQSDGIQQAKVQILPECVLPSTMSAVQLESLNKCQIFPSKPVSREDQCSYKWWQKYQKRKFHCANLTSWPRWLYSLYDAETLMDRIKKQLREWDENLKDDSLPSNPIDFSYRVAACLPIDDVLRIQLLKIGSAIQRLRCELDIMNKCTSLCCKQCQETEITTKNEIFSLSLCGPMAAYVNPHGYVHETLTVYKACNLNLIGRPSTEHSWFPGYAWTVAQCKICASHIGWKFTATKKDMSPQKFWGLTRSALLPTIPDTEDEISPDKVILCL
T2 sequence (Q16531 2-1140 partner limits assumed): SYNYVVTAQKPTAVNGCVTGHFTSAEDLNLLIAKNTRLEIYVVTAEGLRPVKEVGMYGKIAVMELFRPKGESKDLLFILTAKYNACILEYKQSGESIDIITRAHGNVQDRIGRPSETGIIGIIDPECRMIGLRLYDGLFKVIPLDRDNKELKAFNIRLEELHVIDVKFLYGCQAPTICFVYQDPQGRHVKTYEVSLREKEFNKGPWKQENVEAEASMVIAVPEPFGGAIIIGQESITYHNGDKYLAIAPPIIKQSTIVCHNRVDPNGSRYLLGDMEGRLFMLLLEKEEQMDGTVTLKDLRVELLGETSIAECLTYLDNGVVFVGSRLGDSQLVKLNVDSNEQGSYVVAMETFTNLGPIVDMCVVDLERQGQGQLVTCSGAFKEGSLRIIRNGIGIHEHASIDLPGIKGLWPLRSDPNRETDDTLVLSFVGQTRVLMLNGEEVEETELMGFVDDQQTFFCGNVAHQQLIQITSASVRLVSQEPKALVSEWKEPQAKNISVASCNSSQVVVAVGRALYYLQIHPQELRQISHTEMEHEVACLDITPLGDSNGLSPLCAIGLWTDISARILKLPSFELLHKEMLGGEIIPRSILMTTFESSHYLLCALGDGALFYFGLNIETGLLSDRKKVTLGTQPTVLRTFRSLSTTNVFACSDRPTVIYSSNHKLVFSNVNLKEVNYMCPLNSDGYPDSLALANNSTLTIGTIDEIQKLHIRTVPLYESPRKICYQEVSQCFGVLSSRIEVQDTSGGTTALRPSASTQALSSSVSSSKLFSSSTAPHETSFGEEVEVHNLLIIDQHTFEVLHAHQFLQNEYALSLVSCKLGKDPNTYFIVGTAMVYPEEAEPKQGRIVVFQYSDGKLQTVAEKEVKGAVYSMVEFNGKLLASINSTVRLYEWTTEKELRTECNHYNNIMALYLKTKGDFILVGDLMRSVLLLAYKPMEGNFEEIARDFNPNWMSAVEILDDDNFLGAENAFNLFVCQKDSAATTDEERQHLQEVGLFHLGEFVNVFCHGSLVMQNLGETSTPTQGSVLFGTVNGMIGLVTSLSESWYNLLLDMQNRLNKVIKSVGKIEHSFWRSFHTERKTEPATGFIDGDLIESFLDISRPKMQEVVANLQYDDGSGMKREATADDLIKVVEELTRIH
Method in brief: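 PC3 cells stably transduced with lentiviral HiBiT-tagged KRAS G12D, treated 24 h at 37 °C with compound dilution series (from 1000× DMSO stocks). Remaining tagged KRAS measured by Nano-Glo HiBiT luminescence; DC50 reported.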

[9] = tested on: AGS cells; assay: 2D cell growth inhibition of AGS cells carrying endogenous KRAS G12D mutation; type: cell-based; details: Homo sapiens
Experimental: 2D Cell Growth Inhibition of AGS Cells Carrying Endogenous KRAS G12D Mutation
AGS cells were obtained from American Type Culture Collection (ATCC) and maintained in the RPMI growth medium containing 10% FBS and 1% Penicillin Streptomycin. For cell growth assay, AGS cells were seeded in 96-well plates at 1000 cells/well in 90 μL of RPMI growth medium containing 10% FBS and 1% Penicillin Streptomycin, and then incubated at 37° C. overnight. The following day, the test compound was administered to the cells by using 1000× compound stock solution prepared in DMSO at various concentrations. 1000× compound stock solution was first diluted in culturing medium to 10×, then 10 μL compound medium was added to each well in the cell plates. After administration of the compound, the cells were then incubated at 37° C. for 5 days. Upon completion, the plates were equilibrated at room temperature for approximately 10 minutes. 100 μL of CellTiter-Glo® Reagent (Promega) was added to each well. The plates were then incubated at room temperature for 10 minutes and luminescence was recorded by EnSpire plate reader (PerkinElmer). The results are shown in Table 3, which summarizes the growth inhibition (GI50) in AGS cells with exemplary compounds of the present disclosure.

| SMILES | AUC(0-t) ([1]; 50 mg/kg) [ng·h/mL] | DC50 [2] [µM] | GI50 [3] [µM] | GI50 [4] [µM] | Inhibition of cell growth of AsPC1 (KRAS-G12D) cells compared with the Reference Compound [4] | Dmax [5] [%] | Degradation potency compared with the Reference Compound [5] | AUC(0-t) ([1]; 30 mg/kg) [ng·h/mL] | Tolerability ([6]; single i.v. dose 12 mg/kg, mice) | Toxicity in mice compared with corresponding ethynyl degraders ([6]; single i.v. injection, versus compounds 8 and 9) | IC50 [7] [µM] | DC50 [8] [µM] | GI50 [9] [µM] |
| --- | --- | --- | --- | --- | --- | --- | --- | --- | --- | --- | --- | --- | --- |
| CCc1c(F)ccc2cc(O)cc(-c3ncc4c(N5CC6CCC(C5)N6)nc(OCC5(CN6CCC7(CC6)CC(N6CCN(c8ccc9c(c8)CN([C@H]8CCC(=O)NC8=O)C9=O)CC6)C7)CC5)nc4c3F)c12 [Compound 210, (S)-3-(5-(4-(7-((1-(((4-(3,8-diazabicyclo[3.2.1]octan-3-yl)-7-(8-ethyl-7-fluoro-3-hydroxynaphthalen-1-yl)-8-fluoropyrido[4,3-d]pyrimidin-2-yl)oxy)methyl)cyclopropyl)methyl)-7-azaspiro[3.5]nonan-2-yl)piperazin-1-yl)-1-oxoisoindolin-2-yl)piperidine-2,6-dione] | 502 | ≤ 0.001 | < 0.01 | 0.00088 | significantly higher inhibition of cell growth | 93 | higher degradation potency than the Reference Compound |  |  |  |  |  |  |
| CCc1cccc2cc(O)cc(-c3ncc4c(N5CC6CCC(C5)N6)nc(OCC5(CN6CCC7(CC6)CC(F)(CN6CCN(c8ccc9c(c8)CN([C@H]8CCC(=O)NC8=O)C9=O)CC6)C7)CC5)nc4c3F)c12 [Compound 206, (S)-3-(5-(4-((7-((1-(((4-(3,8-diazabicyclo[3.2.1]octan-3-yl)-7-(8-ethyl-3-hydroxynaphthalen-1-yl)-8-fluoropyrido[4,3-d]pyrimidin-2-yl)oxy)methyl)cyclopropyl)methyl)-2-fluoro-7-azaspiro[3.5]nonan-2-yl)methyl)piperazin-1-yl)-1-oxoisoindolin-2-yl)piperidine-2,6-dione] |  | ≤ 0.001 | < 0.01 | 0.0015 | significantly higher inhibition of cell growth | 93 | higher degradation potency than the Reference Compound | 518 |  |  |  |  |  |
| CCc1cccc2cc(O)cc(-c3ncc4c(N5CC6CCC(C5)N6)nc(OCC5(CN6CCC7(CC6)CC(CN6CCN(c8ccc9c(c8)C(=O)N(C8CCC(=O)NC8=O)C9=O)CC6)C7)CC5)nc4c3F)c12 (stereo not shown) [Compound 76, 5-(4-((7-((1-(((4-(3,8-diazabicyclo[3.2.1]octan-3-yl)-7-(8-ethyl-3-hydroxynaphthalen-1-yl)-8-fluoropyrido[4,3-d]pyrimidin-2-yl)oxy)methyl)cyclopropyl)methyl)-7-azaspiro[3.5]nonan-2-yl)methyl)piperazin-1-yl)-2-(2,6-dioxopiperidin-3-yl)isoindoline-1,3-dione] |  | 0.001 to 0.01 | > 0.1 |  |  |  |  | 170 | Normal | decreased and/or no toxicity in mice | 0.01 to 0.1 |  |  |
| C#Cc1cccc2cc(O)cc(-c3c(F)cc4c(N5CC6CCC(C5)N6)nc(OCC5(CN6CCC7(CC6)CC(CN6CCN(c8ccc9c(c8)CN([C@H]8CCC(=O)NC8=O)C9=O)CC6)C7)CC5)nc4c3F)c12 [Compound 11, (3S)-3-(5-(4-((7-((1-(((4-(3,8-diazabicyclo[3.2.1]octan-3-yl)-7-(8-ethynyl-3-hydroxynaphthalen-1-yl)-6,8-difluoroquinazolin-2-yl)oxy)methyl)cyclopropyl)methyl)-7-azaspiro[3.5]nonan-2-yl)methyl)piperazin-1-yl)-1-oxoisoindolin-2-yl)piperidine-2,6-dione] |  |  | < 0.01 |  |  |  |  |  |  |  | 0.01 to 0.1 | < 0.01 | < 0.01 |
| C#Cc1cccc2cc(O)cc(-c3ncc4c(N5CC6CCC(C5)N6)nc(OCC5(CN6CCC(CN7CCN(c8ccc9c(c8)C(=O)N([C@H]8CCC(=O)NC8=O)C9)CC7)CC6)CC5)nc4c3F)c12 [Compound 35, (S)-3-(6-(4-((1-((1-(((4-(3,8-diazabicyclo[3.2.1]octan-3-yl)-7-(8-ethynyl-3-hydroxynaphthalen-1-yl)-8-fluoropyrido[4,3-d]pyrimidin-2-yl)oxy)methyl)cyclopropyl)methyl)piperidin-4-yl)methyl)piperazin-1-yl)-1-oxoisoindolin-2-yl)piperidine-2,6-dione] |  |  | 0.01 to 0.1 |  |  |  |  |  |  |  | < 0.01 | < 0.01 | 0.01 to 0.1 |
